Reference: patent US9394297B2, “Amides as pim inhibitors” (AMGEN INC., priority 2012, dated 2016)
pIC50: −log10 of the molar value.

What follows are molecules tested on KMS-12-BM cell lines (assay: KMS12 #2 flow cytometry assay (phospho-BAD Ser112)). Settings: Homo sapiens, 110 min; KMS-12-BM cells, pBAD Ser112 by flow cytometry, 110 min with compound; read-out: KMS-12-Flow IC50 IP.
Format: cell-based

Compound	pIC50
Cc1nc2cccc(-c3cc4c([nH]3)[C@H](C)NC4=O)c2nc1NCC(F)F [Example 383, (S)-2-(3-((2,2-difluoroethyl)amino)-2-methylquinoxalin-5-yl)-6-methyl-5,6-dihydropyrrolo[3,4-b]pyrrol-4(1H)-one]	6.35
Cc1nc2cccc(-c3cc4c([nH]3)[C@@H](C)NC4=S)c2nc1NC(C)(C)C [Example 332, (6R)-2-(3-(tert-butylamino)-2-methyl-5-quinoxalinyl)-6-methyl-5,6-dihydropyrrolo[3,4-b]pyrrole-4(1H)-thione]	< 4.40
Cc1nc2cccc(-c3cc4c([nH]3)[C@@H](C)NC4=O)c2nc1NCC(F)F [Example 382, (R)-2-(3-((2,2-difluoroethyl)amino)-2-methylquinoxalin-5-yl)-6-methyl-5,6-dihydropyrrolo[3,4-b]pyrrol-4(1H)-one]	7.08
Cc1nc2cccc(-c3cc4c([nH]3)CCNC4=O)c2nc1-c1cccnc1Cl [Example 410, 2-(3-(2-chloro-3-pyridinyl)-2-methyl-5-quinoxalinyl)-1,5,6,7-tetrahydro-4H-pyrrolo[3,2-c]pyridin-4-one]	4.66
Cc1nc2cccc(-c3cc4c([nH]3)CCNC4=O)c2nc1N[C@H]1C[C@@H](NCC(F)(F)F)C1 [Example 444]	6.33
Cc1nc2ccc(F)c(-c3cc4c([nH]3)[C@@H](C)NC4=O)c2nc1NC(C)(C)C [Example 297, (6R)-2-(3-(tert-butylamino)-6-fluoro-2-methyl-5-quinoxalinyl)-6-methyl-5,6-dihydropyrrolo[3,4-b]pyrrol-4(1H)-one]	7.55
Cc1nc2cccc(-c3cc4c(n3C)C(CO)NC4=O)c2nc1NC(C)(C)C (racemic) [Example 470, (R)-2-(3-(tert-butylamino)-2-methylquinoxalin-5-yl)-6-(hydroxymethyl)-1-methyl-5,6-dihydropyrrolo[3,4-b]pyrrol-4(1H)-one and (S)-2-(3-(tert-butylamino)-2-methylquinoxalin-5-yl)-6-(hydroxymethyl)-1-methyl-5,6-dihydropyrrolo[3,4-b]pyrrol-4(1H)-one]	5.89
Cc1nc2cccc(-c3cc4c([nH]3)CCN/C4=N\O)c2nc1NC(C)(C)C [Example 300, (E/Z)-2-(3-(tert-butylamino)-2-methylquinoxalin-5-yl)-6,7-dihydro-1H-pyrrolo[3,2-c]pyridin-4(5H)-one oxime]	< 5.00

The next lines start with the values.

pIC50	Compound
6.92	Cc1nc2cccc(-c3cc4c([nH]3)C(CO)NC4=O)c2nc1NC(C)(C)C (racemic) [Example 469, (R)-2-(3-(tert-butylamino)-2-methylquinoxalin-5-yl)-6-(hydroxymethyl)-5,6-dihydropyrrolo[3,4-b]pyrrol-4(1H)-one and (S)-2-(3-(tert-butylamino)-2-methylquinoxalin-5-yl)-6-(hydroxymethyl)-5,6-dihydropyrrolo[3,4-b]pyrrol-4(1H)-one]
6.23	CC(C)(C)Nc1ccc2cccc(-c3cc4c([nH]3)CCNC4=O)c2n1 [Example 340, 2-(2-(tert-butylamino)-8-quinolinyl)-1,5,6,7-tetrahydro-4H-pyrrolo[3,2-c]pyridin-4-one]
7.55	C[C@H]1NC(=O)c2cc(-c3c(F)ccc4c(=O)n(C)c(NC(C)(C)C)nc34)[nH]c21 [Example 405, 2-(tert-butylamino)-7-fluoro-3-methyl-8-((6R)-6-methyl-4-oxo-1,4,5,6-tetrahydropyrrolo[3,4-b]pyrrol-2-yl)-4(3H)-quinazolinone]
7.53	Cn1c(NC(C)(C)C)nc2c(-c3cc4c([nH]3)C3(CC3)NC4=O)cccc2c1=O [Example 456, 2′-(2-(tert-butylamino)-3-methyl-4-oxo-3,4-dihydro-8-quinazolinyl)-1′H-spiro[cyclopropane-1,6′-pyrrolo[3,4-b]pyrrol]-4′(5′H)-one]
7.01	Cc1nc2cccc(-c3cc4c([nH]3)[C@H](C)NC4=O)c2nc1NC(C)(C)C [Example 327, (6S)-2-(3-(tert-butylamino)-2-methyl-5-quinoxalinyl)-6-methyl-5,6-dihydropyrrolo[3,4-b]pyrrol-4(1H)-one]
